Laboratory results taken from patent publication US10696623B2, “Phenolic acid derivative compound and use thereof” (DAEBONG LS, LTD, priority 2015, dated 2020).

Assay: DPPH radical scavenging activity (antioxidant effect)
Assay type: biochemical
Settings: 0.2 mM DPPH in methanol, 10 min at room temperature, absorbance 517 nm; compared with ascorbic acid (FIG. 1)
Method: The 1,1-diphenyl-2-picrylhydrazyl (DPPH) radical scavenging activities of the phenolic acid derivative compounds prepared in Examples 1-5 were measured to evaluate the antioxidant activities of the compounds against free radicals. Ascorbic acid was used as a positive control.
1,1-Diphenyl-2-picrylhydrazyl (DPPH) radical was purchased from Sigma Chemical Co. (USA) and L-ascorbic acid purchased from Sigma (USA) were used for testing.
100 μl of a 0.2 mM DPPH solution in methanol and 100 μl of each of the compounds at different concentrations were prepared in a 96-well plate. After the reaction was allowed to proceed at room temperature for 10 min, the absorbance of each sample was measured at 517 nm.

Compound: CCOC(=O)[C@H](Cc1ccccc1)NC(=O)c1cc(O)c(O)c(O)c1 [Example 1, (S)-ethyl-3-phenyl-2-(3,4,5-trihydroxybenzamido)propanoate]
- DPPH radical scavenging activity (antioxidant activity): high activity compared to the control ascorbic acid
